According to patent publication US20250313535A1, “ALPHA 4 BETA 7 INTEGRIN MODULATORS AND USES THEREOF” (DICE MOLECULES SV, INC., priority 2022, published 2025):
Where two headings read alike, the source gives them in different places.

Columns and labels:
α4β7 integrin = α4β7 integrin (Homo sapiens (Human), UniProt P13612+P26010); assay: Integrin Adhesion Assay: Protocol 4 (MAdCAM-coated plate, RPMI-8866 cells with stable LOF mutation of the ITGB1 gene); assay type: cell-based
Procedure, shortened: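 RPMI-8866 cells with CRISPR/Cas9 knockout of ITGB1 (2×10^6/mL) were added to MAdCAM-coated wells with compound (1% DMSO) in HEPES/NaCl buffer with 1 mM MnCl2, 0.1 mM CaCl2 and 1% BSA, then incubated 1 h at 37 °C. After four washes, adherent cells were quantified by CellTiter-Glo luminescence. Percent inhibition versus DMSO and control compound was fitted to 4-parameter curves.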

α4β1 integrin = α4β1 integrin (Homo sapiens (Human), UniProt P05556+P13612); assay: Integrin Adhesion Assay: Protocol 5 (VCAM-coated plate, RPMI-8866 cells with stable LOF mutation of the ITGB7 gene); assay type: cell-based
α4β1 integrin, sequence (P13612 34-1032): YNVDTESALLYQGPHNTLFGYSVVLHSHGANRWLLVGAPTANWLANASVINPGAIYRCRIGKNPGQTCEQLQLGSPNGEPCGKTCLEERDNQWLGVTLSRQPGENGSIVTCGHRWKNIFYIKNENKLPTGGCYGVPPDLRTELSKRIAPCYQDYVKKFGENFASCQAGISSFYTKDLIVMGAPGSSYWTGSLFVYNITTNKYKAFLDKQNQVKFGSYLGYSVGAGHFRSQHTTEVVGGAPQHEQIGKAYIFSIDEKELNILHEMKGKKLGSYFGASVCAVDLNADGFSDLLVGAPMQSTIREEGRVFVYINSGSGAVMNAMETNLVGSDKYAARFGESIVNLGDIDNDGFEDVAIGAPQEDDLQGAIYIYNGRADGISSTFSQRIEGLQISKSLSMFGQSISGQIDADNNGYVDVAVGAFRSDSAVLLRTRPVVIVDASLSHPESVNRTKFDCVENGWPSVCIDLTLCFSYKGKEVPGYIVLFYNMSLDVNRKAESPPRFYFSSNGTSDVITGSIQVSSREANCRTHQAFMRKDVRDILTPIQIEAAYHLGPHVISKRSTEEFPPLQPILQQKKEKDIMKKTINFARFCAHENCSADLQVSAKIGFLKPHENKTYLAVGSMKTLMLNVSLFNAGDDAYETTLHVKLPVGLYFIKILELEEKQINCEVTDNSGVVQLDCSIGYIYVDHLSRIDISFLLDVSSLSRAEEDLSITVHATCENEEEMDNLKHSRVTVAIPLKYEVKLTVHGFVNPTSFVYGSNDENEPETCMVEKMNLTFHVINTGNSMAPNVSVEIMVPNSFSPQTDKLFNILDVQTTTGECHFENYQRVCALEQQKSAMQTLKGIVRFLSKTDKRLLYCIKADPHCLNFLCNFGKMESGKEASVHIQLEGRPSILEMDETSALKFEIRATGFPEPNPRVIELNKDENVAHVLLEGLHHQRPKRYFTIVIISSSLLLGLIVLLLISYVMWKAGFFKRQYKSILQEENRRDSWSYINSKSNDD
α4β1 integrin, sequence (P05556 21-798): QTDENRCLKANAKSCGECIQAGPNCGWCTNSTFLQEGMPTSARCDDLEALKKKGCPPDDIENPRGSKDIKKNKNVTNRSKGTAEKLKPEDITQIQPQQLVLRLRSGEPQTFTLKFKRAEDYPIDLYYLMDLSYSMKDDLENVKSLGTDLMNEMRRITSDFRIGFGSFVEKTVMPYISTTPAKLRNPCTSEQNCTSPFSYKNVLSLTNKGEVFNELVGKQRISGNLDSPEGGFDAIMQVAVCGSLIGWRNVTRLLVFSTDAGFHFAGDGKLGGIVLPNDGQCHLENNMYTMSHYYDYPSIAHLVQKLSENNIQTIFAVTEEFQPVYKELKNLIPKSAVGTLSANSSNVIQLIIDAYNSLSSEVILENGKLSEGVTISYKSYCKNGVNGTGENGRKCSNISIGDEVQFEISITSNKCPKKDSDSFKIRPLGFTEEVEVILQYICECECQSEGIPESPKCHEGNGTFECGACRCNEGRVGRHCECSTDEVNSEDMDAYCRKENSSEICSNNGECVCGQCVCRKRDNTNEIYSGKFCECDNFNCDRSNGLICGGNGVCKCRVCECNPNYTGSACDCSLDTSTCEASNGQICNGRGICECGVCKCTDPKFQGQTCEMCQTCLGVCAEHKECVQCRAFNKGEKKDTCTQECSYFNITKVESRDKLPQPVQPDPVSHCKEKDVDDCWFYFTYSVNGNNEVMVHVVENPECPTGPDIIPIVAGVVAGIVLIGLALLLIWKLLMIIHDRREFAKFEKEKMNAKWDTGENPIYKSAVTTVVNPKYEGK
Procedure, shortened: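 RPMI-8866 B cells with CRISPR/Cas9 ITGB7 knockout (clonal, verified by flow cytometry) adhered to VCAM-coated wells for 1 h at 37° C in HEPES/NaCl buffer with 1 mM MnCl2, 0.1 mM CaCl2, 1% BSA, 1% DMSO. Bound cells quantified by CellTiter-Glo luminescence after washing; % inhibition versus DMSO and control, 4-parameter fit.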

[1] = RPMI-8866 cells with stable LOF mutation of the ITGB1 gene, read-out: Mean IC50 α4β7 KO^a
[2] = RPMI-8866 cells with stable LOF mutation of the ITGB7 gene, read-out: Mean IC50 α4β1 KO^b
[3] = Protocol 4, RPMI-8866 cells with LOF mutation of ITGB1, MAdCAM, read-out: Mean IC50 α4β7 KO
[4] = Protocol 5, RPMI-8866 cells with LOF mutation of ITGB7, VCAM, read-out: Mean IC50 α4β1 KO

α4β7 integrin, sequence (P13612 34-1032): as the sequence (P13612 34-1032) above
α4β7 integrin, sequence (P26010 20-798): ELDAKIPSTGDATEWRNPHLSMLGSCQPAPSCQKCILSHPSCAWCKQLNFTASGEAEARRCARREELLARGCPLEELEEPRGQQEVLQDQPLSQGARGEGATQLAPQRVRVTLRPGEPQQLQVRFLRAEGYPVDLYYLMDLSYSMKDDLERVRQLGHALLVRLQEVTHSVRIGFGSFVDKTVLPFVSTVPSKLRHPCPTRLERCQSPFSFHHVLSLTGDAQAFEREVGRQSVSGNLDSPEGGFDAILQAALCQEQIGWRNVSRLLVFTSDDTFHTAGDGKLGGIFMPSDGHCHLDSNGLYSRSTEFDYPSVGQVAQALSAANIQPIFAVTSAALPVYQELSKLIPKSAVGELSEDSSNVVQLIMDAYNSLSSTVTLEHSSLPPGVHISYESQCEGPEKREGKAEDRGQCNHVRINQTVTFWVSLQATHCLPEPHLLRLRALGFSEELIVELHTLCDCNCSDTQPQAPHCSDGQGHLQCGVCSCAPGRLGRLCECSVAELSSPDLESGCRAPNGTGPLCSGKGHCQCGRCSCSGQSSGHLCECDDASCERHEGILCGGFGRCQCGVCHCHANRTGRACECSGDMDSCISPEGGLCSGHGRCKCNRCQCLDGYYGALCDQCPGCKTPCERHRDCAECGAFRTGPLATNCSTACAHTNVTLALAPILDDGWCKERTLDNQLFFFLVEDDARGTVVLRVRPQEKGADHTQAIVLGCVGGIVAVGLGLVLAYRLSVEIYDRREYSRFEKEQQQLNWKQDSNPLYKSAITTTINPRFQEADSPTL

SMILES	IC50 (α4β7 integrin; [1]) [nM]	IC50 (α4β1 integrin; [2]) [nM]	IC50 (α4β7 integrin; [3]) [nM]	IC50 (α4β1 integrin; [4]) [nM]
COC(=O)[C@H](Cc1cccc2c(-c3nccc4cc(CCN(C)C)ccc34)cccc12)NC(=O)OC(C)(C)C [Compound 471]	< 10	100 to 1000	–	–
COc1ccc(CN(C)C)c(OC)c1-c1cccc2c(C[C@H](NC(=O)c3c(F)cccc3Cl)C(=O)O)cccc12 [Compound 610]	< 10	100 to 1000	–	–
CC(N1CCC(C(=O)N[C@@H](Cc2cccc3c(-c4c(C(F)(F)F)c5ccccc5n(C)c4=O)cccc23)C(=O)O)(C(F)(F)F)CC1)C(F)(F)F (some centres unmarked) [Compound 515]	100 to 1000	> 1000	–	–
Cn1c(=O)c(-c2cccc3c(C[C@H](NC(=O)C4(C)CCCN(CC5COC5)C4)C(=O)O)cccc23)c(C(F)(F)F)c2ccccc21 (some centres unmarked) [Compound 520]	100 to 1000	> 1000	–	–
COc1ccc(CN2CCC(F)(F)CC2)c(OC)c1-c1cccc2c(C[C@H](NC(=O)C3(C(F)(F)F)CCN([C@@H]4COC[C@@H]4F)CC3)C(=O)O)cccc12 [Compound 668]	< 10	> 1000	–	–
COc1cc(CN(C)C)cc(OC)c1-c1cccc2c(C[C@H](NC(=O)C3(C(F)(F)F)CCN(CC(F)(F)F)CC3)C(=O)O)cccc12 [Compound 478]	< 10	> 1000	–	–
O=C(O)[C@H](Cc1cccc2c(-c3nccc4c(CN5CC(F)C5)cccc34)cccc12)NC(=O)C1(C(F)(F)F)CCN(CC(F)(F)F)CC1 [Compound 556]	< 10	> 1000	–	–
COc1ccc(CN2CCC(C)(C)CC2)c(OC)c1-c1cccc2c(C[C@H](NC(=O)c3c(C)cccc3F)C(=O)O)cccc12 [Compound 626]	< 10	100 to 1000	–	–
COc1ccc2ccncc2c1-c1cccc2c(C[C@H](NC(=O)C3(C(F)(F)F)CCN(CC(F)(F)F)CC3)C(=O)O)cccc12 [Compound 523]	< 10	100 to 1000	–	–
COc1ccc(CN2CCCC(F)(F)CC2)c(OC)c1-c1cccc2c(C[C@H](NC(=O)c3c(C)cccc3F)C(=O)O)cccc12 [Compound 653]	< 10	100 to 1000	–	–

More lines, now with the values ahead:

IC50 (α4β7 integrin; [1]) [nM]	IC50 (α4β1 integrin; [2]) [nM]	IC50 (α4β7 integrin; [3]) [nM]	IC50 (α4β1 integrin; [4]) [nM]	SMILES
–	–	10 to 100	> 1000	O=C(O)[C@H](Cc1cccc2c(-c3ncc(CN4CCOC(C(F)(F)F)C4)c4ccccc34)cccc12)NC(=O)C1(C(F)(F)F)CCN(CC(F)F)CC1 (some centres unmarked) [Compound 858]
–	–	10 to 100	> 1000	COc1ccc2c(c1-c1cccc3c(C[C@H](NC(=O)c4c(C)cccc4F)C(=O)O)cccc13)CCN(CC(F)F)C2 [Compound 1003]
–	–	< 10	> 1000	O=C(O)[C@H](Cc1cccc2c(-c3ncc(CCN4CCC[C@H](F)C4)c4ccccc34)cccc12)NC(=O)C1(C(F)(F)F)CCN(CC(F)(F)F)CC1 [Compound 978]
–	–	< 10	100 to 1000	Cc1cccc(F)c1C(=O)N[C@@H](Cc1cccc2c(-c3c(C(F)(F)F)c4cc(CCN5CCCC5)ccc4n(C)c3=O)cccc12)C(=O)O [Compound 713]
–	–	< 10	> 1000	COc1cc(CN2CCC(C)(C)CC2)cnc1-c1cccc2c(C[C@H](NC(=O)C3(C(F)(F)F)CCN(CC(F)(F)F)CC3)C(=O)O)cccc12 [Compound 890]
–	–	< 10	100 to 1000	Cn1c(=O)c(-c2cccc3c(C[C@H](NC(=O)C4(C(F)(F)F)CCN(CC(F)(F)F)CC4)C(=O)O)cccc23)c(C(F)(F)F)c2cc(CN3CCC(F)CC3)ccc21 [Compound 833]
–	–	< 10	100 to 1000	COc1cccc(CN2CCCCC2)c1-c1cccc2c(C[C@H](NC(=O)c3c(C)cccc3F)C(=O)O)cccc12 [Compound 1014]
–	–	10 to 100	> 1000	COc1ccc(CN2CCCC(C)(C)CC2)c(OC)c1-c1cccc2c(C[C@H](NC(=O)C3(C(F)(F)F)CCN(CC(F)(F)F)CC3)C(=O)O)cccc12 [Compound 812]
–	–	< 10	100 to 1000	COc1ccc(CCN2CCCCC2)c(C(F)(F)F)c1-c1cccc2c(C[C@H](NC(=O)c3c(C)cccc3F)C(=O)O)cccc12 [Compound 1004]
–	–	< 10	100 to 1000	COc1ccc(CN2CCCCC2)c(OC)c1-c1cccc2c(C[C@H](NC(=O)C3(C(F)(F)F)CCN(CC(F)(F)F)CC3)C(=O)O)cccc12 [Compound 784]
–	–	< 10	100 to 1000	CC[C@@H]1CCCN1Cc1cnc(-c2cccc3c(C[C@H](NC(=O)C4(C(F)(F)F)CCN(CC(F)F)CC4)C(=O)O)cccc23)c2ccccc12 [Compound 936]
–	–	< 10	100 to 1000	O=C(O)[C@H](Cc1cccc2c(-c3ncc(CN4CCOCC4)c4ccccc34)cccc12)NC(=O)C1(C(F)(F)F)CCN(CC(F)F)CC1 [Compound 878]
